Data published in patent US8569336B2, “Compounds for the treatment of inflammatory disorders” (priority 2008, dated 2013).

Biological target: T1, purified catalytic domain of recombinant human TACE (rhTACEc) (Homo sapiens, UniProt P78536, N452Q/S266A)
T1 construct: 6xHis (C); made in house; host or cells: baculovirus/Hi5 insect cells
Test: TACE kinetic assay: cleavage of internally quenched peptide substrate TNF-FRET 2 (Ki)
Assay type: biochemical
Settings: TNF-FRET 2 substrate, read-out: Ki

T1 sequence (P78536 215-477 S266A/N452Q): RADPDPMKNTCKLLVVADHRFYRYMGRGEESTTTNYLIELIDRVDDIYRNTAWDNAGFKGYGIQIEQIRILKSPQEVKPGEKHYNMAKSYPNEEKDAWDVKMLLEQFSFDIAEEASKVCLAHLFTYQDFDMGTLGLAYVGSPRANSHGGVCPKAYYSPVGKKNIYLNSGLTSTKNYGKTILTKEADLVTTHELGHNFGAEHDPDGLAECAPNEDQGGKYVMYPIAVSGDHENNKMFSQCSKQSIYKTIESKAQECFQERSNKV

Structure (SMILES) | Ki [nM]
CN(C)C1CCN(c2ccc3oc(C4(CN5CCc6ccsc6C5=O)NC(=O)NC4=O)cc3n2)CC1 (stereo not drawn) [Compound 2495] | 0.71
COc1ccc2c(c1)C(=O)N(C[C@@]1(c3cc4c(ccc5sc(C)nc54)o3)NC(=O)NC1=O)C2 [Compound 1739] | 0.071
COc1ccc2c(c1)C(=O)N(C[C@@]1(c3cc4cc(-c5cncc(O)c5)ncc4o3)NC(=O)NC1=O)C2 [Compound 2244] | 0.35
COc1ccc2c(c1)C(=O)N(C[C@@]1(c3cc4cnc(C5=NCCN5)cc4o3)NC(=O)NC1=O)C2 [Compound 2273] | 0.124
COc1ccc2c(c1)C(=O)N(CC1([C@H]3C[C@H](c4ccccc4)C3)NC(=O)NC1=O)C2 (stereo partly drawn) [Compound 1915] | 9.99
COc1ccc2c(c1)C(=O)N(C[C@@]1(c3cc4cc(-c5c(C)nn(C)c5C)ccc4o3)NC(=O)NC1=O)C2 [Compound 2213] | 0.403
COc1ccc2c(c1)C(=O)N(C[C@@]1(c3cc4cc(-c5cccc(C#N)c5)ncc4o3)NC(=O)NC1=O)C2 [Compound 2432] | 0.92
COc1ccc2c(c1)C(=O)N(C[C@@]1(c3cc4ccc(C(=O)O)cc4o3)NC(=O)NC1=O)C2 [Compound 2410] | 0.3
COc1ccc2c(c1)C(=O)N(C[C@@]1(c3cc4c(o3)CCN(C(=O)N(C)C)C4)NC(=O)NC1=O)C2 [Compound 319] | 1.83

Results, then the molecule that gave them:

Ki [nM] | Structure (SMILES)
1.44 | CNC1CCN(c2ccc3oc([C@]4(CN5Cc6ccc(OC)cc6C5=O)NC(=O)NC4=O)cc3n2)CC1 [Compound 2139]
0.5 | COc1ccc2c(c1F)C(=O)N(C[C@@]1(c3cc4nc(N5CCCC(C(N)=O)C5)ccc4o3)NC(=O)NC1=O)C2 (stereo partly drawn) [Compound 1517]
0.48 | COC(=O)c1ccc2oc([C@]3(CN4Cc5ccc(OC)c(F)c5C4=O)NC(=O)NC3=O)cc2n1 [Compound 1903]
0.69 | COc1ccc2c(c1)C(=O)N(C[C@@]1(c3cc4nc(CO)ccc4o3)NC(=O)NC1=O)C2 [Compound 1945]
0.24 | COc1ccc2c(c1F)C(=O)N(C[C@@]1(c3cc4nc(-c5ccnc(N6CCNCC6)c5)ccc4o3)NC(=O)NC1=O)C2 [Compound 1719]
0.81 | CCNc1nnc(-c2ccc3oc([C@]4(CN5Cc6ccc(OC)c(F)c6C5=O)NC(=O)NC4=O)cc3n2)o1 [Compound 1916]
1.23 | COc1ccc2c(c1F)C(=O)N(C[C@@]1(c3cc4cnc(C)nc4o3)NC(=O)NC1=O)C2 [Compound 304]
0.14 | COc1ccc2c(c1F)C(=O)N(C[C@@]1(c3cc4cc(-c5c(C)n[nH]c5C)c(F)cc4o3)NC(=O)NC1=O)C2 [Compound 1183]

Tested on: TNF-α production from human whole blood
Test: Inhibition of TNF-α production from human whole blood (hWBA), LPS stimulated, ELISA
Assay type: cell-based
Settings: Homo sapiens, 3.5 h, human whole blood diluted 1:1, LPS stimulated, 3.5 h, TNF-α by ELISA; read-out: hWBA (IC50)

Structure (SMILES) | IC50 [nM]
COc1ccc2c(c1)C(=O)N(C[C@@]1(c3cc4nc(-c5ccnn5C)ccc4o3)NC(=O)NC1=O)C2 [Compound 2116] | 1200
COc1ccc2c(c1)C(=O)N(C[C@@]1(c3cc4cc(-c5cncc(O)c5)ncc4o3)NC(=O)NC1=O)C2 [Compound 2244] | 365
COc1ccc2c(c1)C(=O)N(C[C@@]1(c3cc4cnc(C5=NCCN5)cc4o3)NC(=O)NC1=O)C2 [Compound 2273] | 747
COc1ccc2c(c1)C(=O)N(C[C@@]1(c3cc4cc(-c5c(C)nn(C)c5C)ccc4o3)NC(=O)NC1=O)C2 [Compound 2213] | 1510

Further lines, results first:

IC50 [nM] | Structure (SMILES)
79 | COc1ccc2c(c1F)C(=O)N(C[C@@]1(c3cc4nc(N5CCC(N(C)C)CC5)ccc4o3)NC(=O)NC1=O)C2 [Compound 1298]
1200 | COc1ccc2c(c1)C(=O)N(C[C@@]1(c3cc4nc(N5CC(C)NC(C)C5)ccc4o3)NC(=O)NC1=O)C2 (stereo partly drawn) [Compound 2120]
800 | COc1ccc2c(c1)C(=O)N(C[C@@]1(c3cc4nc(-c5ccc(N6CCOCC6)nc5)ccc4o3)NC(=O)NC1=O)C2 [Compound 2151]
388 | CNC1CCN(c2ccc3oc([C@]4(CN5Cc6ccc(OC)cc6C5=O)NC(=O)NC4=O)cc3n2)CC1 [Compound 2139]

Same assay, conditions: Homo sapiens, LPS-stimulated human whole blood, TNF-α by ELISA; read-out: hWBA (IC50)

Structure (SMILES) | IC50 [nM]
COc1ccc2c(c1)C(=O)N(C[C@@]1(c3cc4c(ccc5sc(C)nc54)o3)NC(=O)NC1=O)C2 [Compound 1739] | 4530
COc1ccc2c(c1)C(=O)N(CC1([C@H]3C[C@H](c4ccccc4)C3)NC(=O)NC1=O)C2 (stereo partly drawn) [Compound 1915] | 100000
COc1ccc2c(c1)C(=O)N(C[C@@]1(c3cc4c(o3)CCN(C(=O)N(C)C)C4)NC(=O)NC1=O)C2 [Compound 319] | 501

Second part, the molecule after the results:

IC50 [nM] | Structure (SMILES)
175 | CCCN1CCN(c2ccc3oc([C@]4(CN5Cc6ccc(OC)c(F)c6C5=O)NC(=O)NC4=O)cc3n2)CC1 [Compound 1708]
260 | COc1ccc2c(c1F)C(=O)N(C[C@@]1(c3cc4nc(N5CCCC(C(N)=O)C5)ccc4o3)NC(=O)NC1=O)C2 (stereo partly drawn) [Compound 1517]
248 | COC(=O)c1ccc2oc([C@]3(CN4Cc5ccc(OC)c(F)c5C4=O)NC(=O)NC3=O)cc2n1 [Compound 1903]
728 | COc1ccc2c(c1)C(=O)N(C[C@@]1(c3cc4nc(CO)ccc4o3)NC(=O)NC1=O)C2 [Compound 1945]
148 | COc1ccc2c(c1F)C(=O)N(C[C@@]1(c3cc4nc(-c5ccnc(N6CCNCC6)c5)ccc4o3)NC(=O)NC1=O)C2 [Compound 1719]
308 | CCNc1nnc(-c2ccc3oc([C@]4(CN5Cc6ccc(OC)c(F)c6C5=O)NC(=O)NC4=O)cc3n2)o1 [Compound 1916]
300 | COc1ccc2c(c1F)C(=O)N(C[C@@]1(c3cc4cnc(C)nc4o3)NC(=O)NC1=O)C2 [Compound 304]
232 | COc1ccc2c(c1F)C(=O)N(C[C@@]1(c3cc4cc(-c5c(C)n[nH]c5C)c(F)cc4o3)NC(=O)NC1=O)C2 [Compound 1183]

Same assay, conditions: Homo sapiens, human whole blood diluted 1:1, LPS stimulated, TNF-α by ELISA; read-out: hWBA (IC50)

IC50 [nM] | Structure (SMILES)
200 | COc1ccc2c(c1)C(=O)N(C[C@@]1(c3cc4nc(C(N)=O)ccc4o3)NC(=O)NC1=O)C2 [Compound 2457]
650 | CN(C)C1CCN(c2ccc3oc(C4(CN5CCc6ccsc6C5=O)NC(=O)NC4=O)cc3n2)CC1 (stereo not drawn) [Compound 2495]
1720 | COc1ccc2c(c1)C(=O)N(C[C@@]1(c3cc4cc(-c5cccc(C#N)c5)ncc4o3)NC(=O)NC1=O)C2 [Compound 2432]
591 | COc1ccc2c(c1)C(=O)N(C[C@@]1(c3cc4ccc(C(=O)O)cc4o3)NC(=O)NC1=O)C2 [Compound 2410]

Structure (SMILES) | IC50 [nM]
CCOC(=O)N1CCc2oc([C@]3(CN4Cc5ccc(OC)cc5C4=O)NC(=O)NC3=O)cc2C1 [Compound 2437] | 654
COc1ccc2c(c1)C(=O)N(C[C@@]1(c3cc4c(C#N)nccc4o3)NC(=O)NC1=O)C2 [Compound 2445] | 1240

Tested on: not listed separately
Test: Area under the curve determinations of plasma levels in rats (rrAUC), oral 10 mg/kg
Assay type: in vivo
Settings: blood collected 0.5-6 h post-dosing

Structure (SMILES) | RR AUC (rapid rat AUC, rrAUC) [µM·h]
CCOC(=O)N1CCc2oc([C@]3(CN4Cc5ccc(OC)cc5C4=O)NC(=O)NC3=O)cc2C1 [Compound 2437] | 4.026
COc1ccc2c(c1)C(=O)N(C[C@@]1(c3cc4nc(C(N)=O)ccc4o3)NC(=O)NC1=O)C2 [Compound 2457] | 0.113
COc1ccc2c(c1)C(=O)N(C[C@@]1(c3cc4c(C#N)nccc4o3)NC(=O)NC1=O)C2 [Compound 2445] | 0.485

Same assay, conditions: rat, plasma 0.5-6 h, read-out: RR AUC (rapid rat AUC, rrAUC)

AUC [µM·h] | Structure (SMILES)
10.4 | CCCN1CCN(c2ccc3oc([C@]4(CN5Cc6ccc(OC)c(F)c6C5=O)NC(=O)NC4=O)cc3n2)CC1 [Compound 1708]
0.614 | COc1ccc2c(c1F)C(=O)N(C[C@@]1(c3cc4cc5c(c(-c6cccnc6)c4o3)C(=O)NC5)NC(=O)NC1=O)C2 [Compound 1310]

Same assay, conditions: rat, plasma 0.5-6 h post-dosing, read-out: RR AUC (rapid rat AUC, rrAUC)

AUC [µM·h] | Structure (SMILES)
0.037 | COc1ccc2c(c1F)C(=O)N(C[C@@]1(c3cc4nc(N5CCC(N(C)C)CC5)ccc4o3)NC(=O)NC1=O)C2 [Compound 1298]
5.19 | COc1ccc2c(c1)C(=O)N(C[C@@]1(c3cc4nc(-c5ccnn5C)ccc4o3)NC(=O)NC1=O)C2 [Compound 2116]
5.19 | COc1ccc2c(c1)C(=O)N(C[C@@]1(c3cc4nc(N5CC(C)NC(C)C5)ccc4o3)NC(=O)NC1=O)C2 (stereo partly drawn) [Compound 2120]
0.692 | COc1ccc2c(c1)C(=O)N(C[C@@]1(c3cc4nc(-c5ccc(N6CCOCC6)nc5)ccc4o3)NC(=O)NC1=O)C2 [Compound 2151]
